From PMC5905287, “Synthesis and in vitro biochemical evaluation of oxime bond-linked daunorubicin–GnRH-III conjugates developed for targeted drug delivery” (Beilstein Journal of Organic Chemistry, 2018) come the findings set out here.

Each structure is given as a SMILES string. Non-standard residues stand in square brackets, D forms with d. Residues, ends and D or L forms follow the SMILES beside them. *: point of attachment. Daunorubicin(13-NOCH2CO) = COc1cccc2c1C(=O)c1c(O)c3c(c(O)c1C2=O)C[C@@](O)(C(C)=NOCC(=O)*)C[C@@H]3O[C@H]1C[C@H](N)[C@H](O)[C@H](C)O1; pGlu = O=C1CC[C@@H](C(=O)O)N1; Butyryl = CCCC(=O)*

A short description of data set [1]: Degradation in rat liver lysosomal homogenate (LC-MS). Format: in vitro ADME. Conditions: for incubation time after which the smallest Dau-containing metabolite H-Lys(Dau=Aoa)-OH was detected: pH 5. The method, then: In order to gain insight into the cellular release of the drug, the degradation of the Dau–GnRH-III derivatives 1–6, K1 and K2 was determined in the presence of rat liver lysosomal homogenate at 37 °C. […] However, the degradation level and the cleavage sites within the GnRH-III sequence differ considerably depending on the incorporated amino acids, whereby the hydrolyses of the C-terminus (H-Gly-NH2 and H-Pro-Gly-NH2) occurred first in all eight GnRH-III derivatives. Due to the high chemical and enzymatic stability of the oxime bond, no free Dau was detected by LC–MS. In accordance with our previous results, the digestion of the two peptides containing L-Asp in position 6 (K1, K2) provided the smallest Dau-containing metabolite (H-Lys(Dau=Aoa)-OH, m/z 729.36 [M + H]^+). This metabolite could already be detected after 1 hour of incubation in case of K2 and after 2 hours in case of K1. […] It might be assumed that D-Trp of GnRH-III–[^4Lys(Bu), ^6D-Tpr, ^8Lys(Dau=Aoa)] (6) is also accepted at the cleavage site, but due to the prior hydrolysis of the ^7Trp-^8Lys(Dau=Aoa)-bond an evidential fragment has not been detected. A reason for these diversities might be the subsite specificities of the lysosomal proteases. For instance, lysosomal cysteine proteases also known as cathepsins show a broad substrate specificity. […] For instance, the analyzed fragments of the ^6L-Asp derivatives gave clear hints for the presence of endopeptidases, while the digestion of the ^6D-Aaa compounds 1–3 gave only fragments which evidence the activity of exomono- and/or dipeptidases. Moreover, the obtained results for the bioconjugates that contain ^4Lys(Bu) (K2, 4–6) instead of serine indicate a proteolytic cleavage by lysosomal endopeptidases, which might be of great importance for the release of the smallest Dau-containing metabolite.
The rat liver lysosomal homogenate was prepared as previously described. The protein concentration was determined by Qubit Protein Assay Kit according to the manufacturer’s protocol (ThermoFisher Scientific, Waltham, MA, USA). The bioconjugates were dissolved in ddH2O to a concentration of 5 µg/µL. The reaction was carried out in 0.2 M NaOAc buffer (pH 5), with an identical concentration of bioconjugate and rat liver lysosomal homogenate (0.25 µg/µL). The reaction mixtures were incubated at 37 °C and aliquots of 15 µL were taken at 5 min, 1 h, 2 h, 4 h, 8 h and 24 h and quenched with 2 µL of acetic acid. The analysis of the samples was performed by LC–MS.

For data set [2], the target named is T1, GnRH-RI (Homo sapiens, UniProt P30968).
T1 sequence (P30968 1-328): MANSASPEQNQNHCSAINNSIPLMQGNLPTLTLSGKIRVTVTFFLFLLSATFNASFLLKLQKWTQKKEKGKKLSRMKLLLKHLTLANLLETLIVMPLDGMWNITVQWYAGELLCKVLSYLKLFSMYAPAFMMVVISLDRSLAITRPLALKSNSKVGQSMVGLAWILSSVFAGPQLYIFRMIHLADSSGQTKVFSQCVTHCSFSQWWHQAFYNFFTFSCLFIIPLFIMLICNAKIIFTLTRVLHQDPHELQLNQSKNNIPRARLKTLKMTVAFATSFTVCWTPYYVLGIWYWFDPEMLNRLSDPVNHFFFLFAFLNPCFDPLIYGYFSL
The data set can be described thus: Competitive inhibition of [125I][6D-Trp]-GnRH-I binding, human prostate cancer membranes. Also on record: human prostate cancer cells were obtained from a patient at the time of initial surgical treatment; from tissue; host or cells: human prostate cancer specimen from a patient (surgery); membrane homogenate. The method, then:
(§1) To investigate the binding affinity of the novel compounds to the GnRH-receptor, an in vitro ligand competition assay has been performed on human pituitary and GnRH-R positive human prostate cancer tissues. Hereby, the displacement of radiolabeled triptorelin by the unlabeled bioconjugates 1, 2, 4 and 5 was determined. For a better comparison, the bioconjugates K1 and K2 were also analyzed and used as reference. The obtained results summarized in Table 3 point out that all bioconjugates replaced [^125I]-triptorelin with IC50 values in low nanomolar range. […] (1.6 nM and 0.9 nM) and GnRH-II–[D-Lys^6(Dau=Aoa)] (4.2 nM and 2.1 nM).
(§2) Radiolabeled triptorelin was used for displacement studies to evaluate the binding affinity of the conjugates K1, K2, 1, 2, 4 and 5 to GnRH-RI on human pituitary and human prostate cancer cells. […] The binding affinities of the nonradio-labeled GnRH-III bioconjugates to GnRH-RI were determined by displacement of [^125I]-GnRH-I-[^6D-Trp] performing an in vitro ligand competition assay as recently reported. […] Supernatants were aspirated and the bottoms of the tubes containing the pellet were cut off and counted in a gamma counter. Protein concentration was determined by the method of Bradford using a Bio-Rad protein assay kit (Bio-Rad Laboratories, USA). […]

In data set [3] the target is T1, GnRH-RI. Put plainly: Competitive inhibition of [125I][6D-Trp]-GnRH-I binding, human pituitary membranes. On the set-up: human prostate cancer cells were obtained from a patient at the time of initial surgical treatment; from tissue; host or cells: human prostate cancer specimen from a patient (surgery); membrane homogenate. The method, then: as §1, §2

Consider `COc1cccc2c1C(=O)c1c(O)c3c(c(O)c1C2=O)C[C@@](O)(C(C)=NOCC(=O)NCCCC[C@H](NC(=O)[C@H](Cc1c[nH]c2ccccc12)NC(=O)[C@@H](CCC(=O)O)NC(=O)[C@H](Cc1c[nH]cn1)NC(=O)[C@H](CO)NC(=O)[C@H](Cc1c[nH]c2ccccc12)NC(=O)[C@H](Cc1c[nH]cn1)NC(=O)[C@@H]1CCC(=O)N1)C(=O)N1CCC[C@H]1C(=O)NCC(N)=O)C[C@@H]3O[C@H]1C[C@H](N)[C@H](O)[C@H](C)O1` [compound 2, [6D-Glu, 8Lys(Dau=Aoa)]] ([pGlu]HWSH[dE]WK(Daunorubicin(13-NOCH2CO))PG-NH2), for which, in data set [1], the “incubation time after which the smallest Dau-containing metabolite H-Lys(Dau=Aoa)-OH was detected” value came out at 24 h. The IC50 was found to be 10.4 ± 1.3 nM on GnRH-RI [2] (displacement of [125I]-triptorelin, human prostate cancer membranes, mean ± SE, read-out: IC50 prostate cancer) and 23.5 ± 2.1 nM on GnRH-RI [3] (displacement of [125I]-triptorelin, human pituitary membranes, mean ± SE, read-out: IC50 pituitary).
As for `CCCC(=O)NCCCC[C@H](NC(=O)[C@H](Cc1c[nH]c2ccccc12)NC(=O)[C@H](Cc1c[nH]cn1)NC(=O)[C@@H]1CCC(=O)N1)C(=O)N[C@@H](Cc1c[nH]cn1)C(=O)N[C@H](CCC(=O)O)C(=O)N[C@@H](Cc1c[nH]c2ccccc12)C(=O)N[C@@H](CCCCNC(=O)CON=C(C)[C@]1(O)Cc2c(O)c3c(c(O)c2[C@@H](O[C@H]2C[C@H](N)[C@H](O)[C@H](C)O2)C1)C(=O)c1c(OC)cccc1C3=O)C(=O)N1CCC[C@H]1C(=O)NCC(N)=O` [compound 5, [4Lys(Bu), 6D-Glu, 8Lys(Dau=Aoa)]] ([pGlu]HWK(Butyryl)H[dE]WK(Daunorubicin(13-NOCH2CO))PG-NH2), the “incubation time after which the smallest Dau-containing metabolite H-Lys(Dau=Aoa)-OH was detected” value in data set [1] (rat liver lysosomal homogenate, 37 °C) was 24 h. Moreover, the “release of the smallest Dau-containing metabolite H-Lys(Dau=Aoa)-OH” value in data set [1] (rat liver lysosomal homogenate, 37 °C, up to 24 h) is recorded as “identified in small amount”. For the same molecule, the IC50 at GnRH-RI [2] is 11.6 ± 2 nM; on GnRH-RI [3], 7.9 ± 1.1 nM.

In general, IC50 refers to the point on the concentration scale where inhibition reaches its midpoint.
